Test results from patent US12077503B2, “Substituted cyclic amides and their use as herbicides” (FMC CORPORATION, priority 2015, dated 2024).

How the values were obtained:
Format in all cases: in vivo
[1] = tested on: barnyardgrass (Echinochloa crus-galli); assay: Test G Pre-Emergence Protocol; conditions: Echinochloa crus-galli, pre-emergence, 312 h, evaluated after 13 days; for pest or weed control at 15.625 g/ha: 15.625 g ai/ha; for pest or weed control at 15.625 g/ha / pest or weed control at 250 g/ha: read-out: Barnyardgrass damage rating (100=total damage to plant; 0=no damage to plant); for pest or weed control at 62.5 g/ha: 62.5 g ai/ha, 100=total damage to plant, 0=no damage to plant, read-out: Barnyardgrass damage rating; for pest or weed control at 250 g/ha: 250 g ai/ha
How it was run: (§1)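 Pre-emergence spray, 15.625/62.5/250 g/ha, vehicle acetone:water 50:50 + 0.5% Tween 20, applied 1 d after sowing. Glasshouse 24/16° C, 14 h light, 65% RH, watered twice daily. Visual damage rating at 13 d, 0–100 scale.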

[2] = tested on: corn (Zea mays); assay: Test G Pre-Emergence Protocol; conditions: Zea mays, pre-emergence, 312 h, evaluated after 13 days; for plant injury at 15.625 g/ha: 15.625 g ai/ha; for plant injury at 15.625 g/ha / plant injury at 250 g/ha: read-out: Corn damage rating (100=total damage to plant; 0=no damage to plant); for plant injury at 62.5 g/ha: 62.5 g ai/ha, 100=total damage to plant, 0=no damage to plant, read-out: Corn damage rating; for plant injury at 250 g/ha: 250 g ai/ha
How it was run: as §1

[3] = tested on: giant foxtail (Setaria faberi); assay: Test G Pre-Emergence Protocol; conditions: Setaria faberi, pre-emergence, 312 h, evaluated after 13 days; for pest or weed control at 15.625 g/ha: 15.625 g ai/ha; for pest or weed control at 15.625 g/ha / pest or weed control at 250 g/ha: read-out: Foxtail, Giant damage rating (100=total damage to plant; 0=no damage to plant); for pest or weed control at 62.5 g/ha: 62.5 g ai/ha, 100=total damage to plant, 0=no damage to plant, read-out: Foxtail, Giant damage rating; for pest or weed control at 250 g/ha: 250 g ai/ha
How it was run: as §1

[4] = tested on: ivy-leaved morning glory (Ipomoea hederacea); assay: Test G Pre-Emergence Protocol; conditions: Ipomoea, pre-emergence, 312 h, evaluated after 13 days; for pest or weed control at 62.5 g/ha: 62.5 g ai/ha, 100=total damage to plant, 0=no damage to plant, read-out: Morningglory, Ivy-leaved damage rating; for pest or weed control at 250 g/ha: 250 g ai/ha
How it was run: as §1

[5] = tested on: redroot pigweed (Amaranthus retroflexus); assay: Test G Pre-Emergence Protocol; conditions: Amaranthus retroflexus, pre-emergence, 312 h, evaluated after 13 days; for pest or weed control at 15.625 g/ha: 15.625 g ai/ha; for pest or weed control at 15.625 g/ha / pest or weed control at 250 g/ha: read-out: Pigweed, Redroot damage rating (100=total damage to plant; 0=no damage to plant); for pest or weed control at 62.5 g/ha: 62.5 g ai/ha, 100=total damage to plant, 0=no damage to plant, read-out: Pigweed, Redroot damage rating; for pest or weed control at 250 g/ha: 250 g ai/ha
How it was run: as §1

[6] = tested on: velvetleaf (Abutilon theophrasti); assay: Test G Pre-Emergence Protocol; conditions: Abutilon theophrasti, pre-emergence, 312 h, evaluated after 13 days; for pest or weed control at 15.625 g/ha: 15.625 g ai/ha; for pest or weed control at 15.625 g/ha / pest or weed control at 250 g/ha: read-out: Velvetleaf damage rating (100=total damage to plant; 0=no damage to plant); for pest or weed control at 62.5 g/ha: 62.5 g ai/ha, 100=total damage to plant, 0=no damage to plant, read-out: Velvetleaf damage rating; for pest or weed control at 250 g/ha: 250 g ai/ha
How it was run: as §1

[7] = tested on: barnyardgrass (Echinochloa crus-galli); assay: Test G Post-Emergence Protocol; conditions: Echinochloa crus-galli, post-emergence, 312 h, read-out: Barnyardgrass damage rating; for pest or weed control at 15.625 g/ha: 15.625 g ai/ha, evaluated after 13 days (100=total damage to plant; 0=no damage to plant); for pest or weed control at 62.5 g/ha: 62.5 g ai/ha; for pest or weed control at 62.5 g/ha / pest or weed control at 250 g/ha: evaluated after 13 days, 100=total damage to plant, 0=no damage to plant; for pest or weed control at 250 g/ha: 250 g ai/ha
How it was run: (§2)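 Sow in soil; grow 8 d (24/16 °C, 14 h light, 65% humidity); spray 15.625/62.5/250 g/ha in acetone:water 50:50 + 0.5% Tween 20; grow on, water twice daily; score damage 0–100 at 13 d.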

[8] = tested on: corn (Zea mays); assay: Test G Post-Emergence Protocol; conditions: Zea mays, post-emergence, 312 h, read-out: Corn damage rating; for plant injury at 15.625 g/ha: 15.625 g ai/ha, evaluated after 13 days (100=total damage to plant; 0=no damage to plant); for plant injury at 62.5 g/ha: 62.5 g ai/ha; for plant injury at 62.5 g/ha / plant injury at 250 g/ha: evaluated after 13 days, 100=total damage to plant, 0=no damage to plant; for plant injury at 250 g/ha: 250 g ai/ha
How it was run: as §2

[9] = tested on: giant foxtail (Setaria faberi); assay: Test G Post-Emergence Protocol; conditions: Setaria faberi, post-emergence, 312 h, read-out: Foxtail, Giant damage rating; for pest or weed control at 15.625 g/ha: 15.625 g ai/ha, evaluated after 13 days (100=total damage to plant; 0=no damage to plant); for pest or weed control at 62.5 g/ha: 62.5 g ai/ha; for pest or weed control at 62.5 g/ha / pest or weed control at 250 g/ha: evaluated after 13 days, 100=total damage to plant, 0=no damage to plant; for pest or weed control at 250 g/ha: 250 g ai/ha
How it was run: as §2

[10] = tested on: ivy-leaved morning glory (Ipomoea hederacea); assay: Test G Post-Emergence Protocol; conditions: Ipomoea, post-emergence, 312 h, read-out: Morningglory, Ivy-leaved damage rating; for pest or weed control at 15.625 g/ha: 15.625 g ai/ha, evaluated after 13 days (100=total damage to plant; 0=no damage to plant); for pest or weed control at 62.5 g/ha: 62.5 g ai/ha; for pest or weed control at 62.5 g/ha / pest or weed control at 250 g/ha: evaluated after 13 days, 100=total damage to plant, 0=no damage to plant; for pest or weed control at 250 g/ha: 250 g ai/ha
How it was run: as §2

[11] = tested on: redroot pigweed (Amaranthus retroflexus); assay: Test G Post-Emergence Protocol; conditions: Amaranthus retroflexus, post-emergence, 312 h, read-out: Pigweed, Redroot damage rating; for pest or weed control at 15.625 g/ha: 15.625 g ai/ha, evaluated after 13 days (100=total damage to plant; 0=no damage to plant); for pest or weed control at 62.5 g/ha: 62.5 g ai/ha; for pest or weed control at 62.5 g/ha / pest or weed control at 250 g/ha: evaluated after 13 days, 100=total damage to plant, 0=no damage to plant; for pest or weed control at 250 g/ha: 250 g ai/ha
How it was run: as §2

[12] = tested on: velvetleaf (Abutilon theophrasti); assay: Test G Post-Emergence Protocol; conditions: Abutilon theophrasti, post-emergence, 312 h, read-out: Velvetleaf damage rating; for pest or weed control at 15.625 g/ha: 15.625 g ai/ha, evaluated after 13 days (100=total damage to plant; 0=no damage to plant); for pest or weed control at 62.5 g/ha: 62.5 g ai/ha; for pest or weed control at 62.5 g/ha / pest or weed control at 250 g/ha: evaluated after 13 days, 100=total damage to plant, 0=no damage to plant; for pest or weed control at 250 g/ha: 250 g ai/ha
How it was run: as §2

[13] = read-out: Morningglory, Ivy-leaved damage rating (100=total damage to plant; 0=no damage to plant)

SMILES | pest or weed control at 15.625 g/ha [1] [%] | pest or weed control at 62.5 g/ha [1] [%] | pest or weed control at 250 g/ha [1] [%] | plant injury at 15.625 g/ha [2] [%] | plant injury at 62.5 g/ha [2] [%] | plant injury at 250 g/ha [2] [%] | pest or weed control at 15.625 g/ha [3] [%] | pest or weed control at 62.5 g/ha [3] [%] | pest or weed control at 250 g/ha [3] [%] | pest or weed control at 62.5 g/ha [4] [%] | pest or weed control at 250 g/ha [4, 13] [%] | pest or weed control at 15.625 g/ha [5] [%] | pest or weed control at 62.5 g/ha [5] [%] | pest or weed control at 250 g/ha [5] [%] | pest or weed control at 15.625 g/ha [6] [%] | pest or weed control at 62.5 g/ha [6] [%] | pest or weed control at 250 g/ha [6] [%] | pest or weed control at 15.625 g/ha [7] [%] | pest or weed control at 62.5 g/ha [7] [%] | pest or weed control at 250 g/ha [7] [%] | other results
Cc1cc(C2CN(C)C(=O)C2C(=O)Nc2cccc(F)c2F)cc(C)c1Cl (centres unmarked) [Compound 1700] | 20 | 50 | 70 | 0 | 0 | 30 | 40 | 80 | 90 | 10 | 20 | 0 | 0 | 0 | 0 | 0 | 0 | 20 | 50 | 70 | plant injury at 15.625 g/ha [8]: 30%; plant injury at 62.5 g/ha [8]: 30%; plant injury at 250 g/ha [8]: 40%; pest or weed control at 15.625 g/ha [9]: 40%; pest or weed control at 62.5 g/ha [9]: 60%; pest or weed control at 250 g/ha [9]: 70%; pest or weed control at 15.625 g/ha [10]: 20%; pest or weed control at 62.5 g/ha [10]: 20%; pest or weed control at 250 g/ha [10]: 60%; pest or weed control at 15.625 g/ha [11]: 0%; pest or weed control at 62.5 g/ha [11]: 0%; pest or weed control at 250 g/ha [11]: 0%; pest or weed control at 15.625 g/ha [12]: 0%; pest or weed control at 62.5 g/ha [12]: 0%; pest or weed control at 250 g/ha [12]: 0%
CN1C[C@H](c2ccc(Cl)cc2)[C@@H](C(=O)Nc2ccc(F)nc2F)C1=O [Compound 1811] | 80 | 90 | 90 | 0 | 70 | 80 | 90 | 90 | 90 | 20 | 80 | 30 | 70 | 80 | 10 | 50 | 70 | 80 | 80 | 80 | pest or weed control at 15.625 g/ha ([4]; 15.625 g ai/ha, read-out: Morningglory, Ivy-leaved damage rating (100=total damage to plant; 0=no damage to plant)): 0%; plant injury at 15.625 g/ha [8]: 40%; plant injury at 62.5 g/ha [8]: 60%; plant injury at 250 g/ha [8]: 80%; pest or weed control at 15.625 g/ha [9]: 80%; pest or weed control at 62.5 g/ha [9]: 80%; pest or weed control at 250 g/ha [9]: 80%; pest or weed control at 15.625 g/ha [10]: 40%; pest or weed control at 62.5 g/ha [10]: 20%; pest or weed control at 250 g/ha [10]: 70%; pest or weed control at 15.625 g/ha [11]: 20%; pest or weed control at 62.5 g/ha [11]: 60%; pest or weed control at 250 g/ha [11]: 80%; pest or weed control at 15.625 g/ha [12]: 10%; pest or weed control at 62.5 g/ha [12]: 30%; pest or weed control at 250 g/ha [12]: 50%
